Laboratory results reported in patent US5726179A, “Muscarinic agonists” (The University of Toledo, priority 1996, dated 1998).
Where a name gives a salt, the structure may show the parent alone.

Tests used:
muscarinic receptors [1] = assay: Binding affinity at muscarinic receptors in rat central nervous system, ligand [3H]-QNB; details: rat CNS; mean from one to three experiments, each in triplicate
Text: Data represent the mean from one
to three experiments, each performed in triplicate.

muscarinic receptors [2] = assay: PI cortex: agonist activity at muscarinic receptors in rat central nervous system; type: biochemical; details: mean from one to three experiments, each in triplicate
M2 receptors = details: background; cited from earlier work
experimental animals = details: background, cited from earlier work; for reverse cognitive impairments in experimental animals: natural product agonist ligands
M3 receptors = details: background; cited from earlier work

Molecule | PI cortex (at 100 μM) (muscarinic receptors [2]) [%] | also measured
5-(3-Methylpropynyloxycarbonyl)-1,4,5,6-tetrahydropyrimidine HCl [CDD-0177-A] | 22 ± 3 | IC50 (muscarinic receptors [1]): 45 µM
CCN(CC)CC1CCCCN1CC(=O)N1c2ccccc2C(=O)Nc2cccnc21 (stereo not drawn) [AF-DX 116] | – | selective antagonist for M2 receptors (M2 receptors): selective antagonists
C#C/C(C)=C/COC(=O)C1CN=CNC1 (stereo not drawn) [CDD-0161-A, (trans)-5-(3-Methyl-2-penten-4-ynyloxycarbonyl)-1,4,5,6-tetrahydropyrimidine HCl] | 35 ± 5.6 | –
C#C/C(C)=C\COC(=O)C1CN=CNC1 (stereo not drawn) [CDD-0162-A, (cis)-5-(3-Methyl-2-penten-4-ynyloxycarbonyl)-1,4,5,6-tetrahydropyrimidine HCl] | 50 ± 4.3 | –
CC#CCOC(=O)C1CN=CNC1.Cl (stereo not drawn) [CDD-0171-A, 5-(2-Butynyloxycarbonyl)-1,4,5,6-tetrahydropyrimidine HCl] | 140 | –
O=C(OCC#Cc1ccccc1)C1CN=CNC1 (stereo not drawn) [CDD-0189-A] | 3 ± 8.2 | –
C#CCCOC(=O)C1CN=CNC1 (stereo not drawn) [CDD-0195-A] | 100 ± 15 | –
COC(=O)C1=CCCN(C)C1 [arecoline] | – | reverse cognitive impairments in experimental animals (experimental animals): reverse cognitive impairments
O[Si](CCCN1CCCCC1)(c1ccc(F)cc1)C1CCCCC1 (stereo not drawn) [p-F-hexahydrosiladifenidol] | – | selective antagonist for M3 receptors (M3 receptors): selective antagonists
CC[C@@H]1C(=O)OC[C@@H]1Cc1cncn1C [pilocarpine] | – | reverse cognitive impairments in experimental animals (experimental animals): reverse cognitive impairments
CN1CCN(CC(=O)N2c3ccccc3C(=O)Nc3cccnc32)CC1 [pirenzepine] | – | produce memory impairments in experimental animals (experimental animals; M1 antagonist): produce memory impairments
